Results as given in ChEMBL document CHEMBL3994586, “Treatment of estrogen-dependent diseases: Design, synthesis and profiling of a selective 17β-HSD1 inhibitor with sub-nanomolar IC50 for a proof-of-principle study” (Eur J Med Chem, 2017).

What was measured:
[1] = target: T1, 17-beta-hydroxysteroid dehydrogenase type 2 (Homo sapiens, UniProt P37059); experiment: Inhibition of human placental microsomal 17beta-HSD2 using [2,4,6,7-3H]-E2 as substrate after 20 mins in presence of NAD+ by RP-HPLC method
T1 sequence (P37059 whole entry): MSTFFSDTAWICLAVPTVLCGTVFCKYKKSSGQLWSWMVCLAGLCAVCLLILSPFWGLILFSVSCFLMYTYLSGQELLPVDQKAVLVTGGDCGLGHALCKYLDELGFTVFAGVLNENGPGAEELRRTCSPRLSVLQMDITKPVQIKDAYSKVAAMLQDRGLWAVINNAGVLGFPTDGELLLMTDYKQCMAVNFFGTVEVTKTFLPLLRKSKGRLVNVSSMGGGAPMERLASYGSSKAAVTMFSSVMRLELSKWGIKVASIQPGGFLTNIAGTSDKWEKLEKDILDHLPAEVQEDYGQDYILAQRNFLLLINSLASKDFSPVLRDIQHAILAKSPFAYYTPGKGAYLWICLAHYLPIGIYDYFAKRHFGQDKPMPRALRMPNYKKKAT

[2] = target: T2, 17-beta-hydroxysteroid dehydrogenase type 1 (Homo sapiens, UniProt P14061); experiment: Inhibition of human placental cytosolic 17beta-HSD1 assessed as reduction in activation of [2,4,6,7-3H]-E1 substrate to E2 after 10 mins in presence of NADH by RP-HPLC method
T2 sequence (P14061 whole entry): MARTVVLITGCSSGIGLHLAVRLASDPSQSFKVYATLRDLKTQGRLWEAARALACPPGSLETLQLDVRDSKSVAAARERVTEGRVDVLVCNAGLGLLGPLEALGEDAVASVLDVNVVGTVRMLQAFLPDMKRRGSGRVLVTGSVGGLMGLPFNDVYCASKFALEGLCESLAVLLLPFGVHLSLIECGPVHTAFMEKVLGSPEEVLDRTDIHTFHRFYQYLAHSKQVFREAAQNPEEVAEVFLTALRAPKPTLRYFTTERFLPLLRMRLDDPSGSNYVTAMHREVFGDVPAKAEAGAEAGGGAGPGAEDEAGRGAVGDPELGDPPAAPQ

[3] = target: Estrogen receptor beta (ERbeta) (Homo sapiens, UniProt Q92731); experiment: Displacement of [3H]E2 from human recombinant ERbeta assessed as receptor binding at 10 uM after 16 to 20 hrs by liquid scintillation counting method relative to control; details: probe [3H]E2, read-out: Activity
Sequence of Estrogen receptor beta (ERbeta) (Q92731 whole entry): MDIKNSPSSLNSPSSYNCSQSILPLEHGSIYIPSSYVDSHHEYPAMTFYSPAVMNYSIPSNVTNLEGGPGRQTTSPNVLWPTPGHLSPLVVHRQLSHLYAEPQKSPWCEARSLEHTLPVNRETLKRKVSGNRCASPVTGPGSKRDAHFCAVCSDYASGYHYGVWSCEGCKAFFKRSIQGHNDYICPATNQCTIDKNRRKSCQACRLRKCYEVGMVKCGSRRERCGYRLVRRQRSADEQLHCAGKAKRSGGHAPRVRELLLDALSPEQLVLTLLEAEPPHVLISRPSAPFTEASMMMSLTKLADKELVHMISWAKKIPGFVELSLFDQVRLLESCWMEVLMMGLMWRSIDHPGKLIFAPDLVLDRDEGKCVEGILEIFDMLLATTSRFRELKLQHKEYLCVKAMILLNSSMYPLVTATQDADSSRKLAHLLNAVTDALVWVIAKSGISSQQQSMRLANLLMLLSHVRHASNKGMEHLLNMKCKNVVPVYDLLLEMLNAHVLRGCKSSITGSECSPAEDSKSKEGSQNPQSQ

[4] = target: T3, Estrogen receptor alpha (ERalpha) (Homo sapiens, UniProt P03372); experiment: Displacement of [3H]E2 from human recombinant ERalpha assessed as receptor binding at 3 uM after 16 to 20 hrs by liquid scintillation counting method relative to control; details: probe [3H]E2, read-out: Activity
T3 sequence (P03372 whole entry): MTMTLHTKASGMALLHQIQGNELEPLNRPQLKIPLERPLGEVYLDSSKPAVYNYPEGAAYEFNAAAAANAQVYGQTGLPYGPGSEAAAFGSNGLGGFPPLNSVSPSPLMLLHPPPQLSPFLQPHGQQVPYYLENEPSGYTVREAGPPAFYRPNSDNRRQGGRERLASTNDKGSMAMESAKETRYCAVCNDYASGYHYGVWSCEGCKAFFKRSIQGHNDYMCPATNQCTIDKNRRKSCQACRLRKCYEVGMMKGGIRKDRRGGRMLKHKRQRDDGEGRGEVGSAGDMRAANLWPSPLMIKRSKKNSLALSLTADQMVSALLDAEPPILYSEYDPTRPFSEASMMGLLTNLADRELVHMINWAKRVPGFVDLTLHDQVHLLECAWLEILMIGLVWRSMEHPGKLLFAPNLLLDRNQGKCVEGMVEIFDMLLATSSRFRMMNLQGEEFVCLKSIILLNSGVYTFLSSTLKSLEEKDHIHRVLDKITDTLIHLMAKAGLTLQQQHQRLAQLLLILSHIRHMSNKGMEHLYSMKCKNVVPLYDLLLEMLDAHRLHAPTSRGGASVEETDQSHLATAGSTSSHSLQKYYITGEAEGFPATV

[5] = Selectivity index, ratio of IC20 for HEK293 cells to IC50 for human placental cytosolic 17beta-HSD1
CYP1A2 = target: T4, CYP1A2 (Homo sapiens, UniProt P05177); experiment: Inhibition of recombinant human CYP1A2 expressed in baculovirus infected insect cell microsomes at 1 uM relative to control; assay type: ADME
T4 sequence (P05177 whole entry): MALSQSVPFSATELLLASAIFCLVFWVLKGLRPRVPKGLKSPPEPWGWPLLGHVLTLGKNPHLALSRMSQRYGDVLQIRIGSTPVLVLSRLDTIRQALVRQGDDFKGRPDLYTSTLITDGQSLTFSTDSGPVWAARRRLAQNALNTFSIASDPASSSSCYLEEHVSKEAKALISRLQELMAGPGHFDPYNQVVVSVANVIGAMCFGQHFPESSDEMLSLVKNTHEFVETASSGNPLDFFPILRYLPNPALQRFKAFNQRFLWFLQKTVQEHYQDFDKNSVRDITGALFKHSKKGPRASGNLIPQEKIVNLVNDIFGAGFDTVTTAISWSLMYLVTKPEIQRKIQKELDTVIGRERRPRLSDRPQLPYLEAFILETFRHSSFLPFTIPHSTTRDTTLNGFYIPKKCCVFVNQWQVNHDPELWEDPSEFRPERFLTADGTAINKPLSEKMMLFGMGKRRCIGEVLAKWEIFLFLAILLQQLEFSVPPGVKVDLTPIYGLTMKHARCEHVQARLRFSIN

CYP2C19 = CYP2C19 (Homo sapiens, UniProt P33261); experiment: Inhibition of recombinant human CYP2C19 expressed in baculovirus infected insect cell microsomes at 1 uM relative to control; assay type: ADME
Sequence of CYP2C19 (P33261 whole entry): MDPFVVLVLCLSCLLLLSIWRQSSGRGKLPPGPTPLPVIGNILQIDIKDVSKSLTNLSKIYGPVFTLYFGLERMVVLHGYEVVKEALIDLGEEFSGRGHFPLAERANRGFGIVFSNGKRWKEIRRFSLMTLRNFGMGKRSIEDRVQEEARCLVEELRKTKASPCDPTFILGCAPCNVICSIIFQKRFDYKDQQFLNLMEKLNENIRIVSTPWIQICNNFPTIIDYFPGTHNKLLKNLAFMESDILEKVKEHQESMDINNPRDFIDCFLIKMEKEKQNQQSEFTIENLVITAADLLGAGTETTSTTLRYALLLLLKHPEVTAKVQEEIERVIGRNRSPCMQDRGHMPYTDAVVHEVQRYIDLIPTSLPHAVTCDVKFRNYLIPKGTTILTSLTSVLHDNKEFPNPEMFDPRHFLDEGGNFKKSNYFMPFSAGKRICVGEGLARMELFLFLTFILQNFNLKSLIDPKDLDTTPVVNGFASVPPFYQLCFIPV

CYP3A4 = CYP3A4 (Homo sapiens, UniProt P08684); experiment: Inhibition of recombinant human CYP3A4 expressed in baculovirus infected insect cell microsomes at 1 uM relative to control; assay type: ADME
Sequence of CYP3A4 (P08684 whole entry): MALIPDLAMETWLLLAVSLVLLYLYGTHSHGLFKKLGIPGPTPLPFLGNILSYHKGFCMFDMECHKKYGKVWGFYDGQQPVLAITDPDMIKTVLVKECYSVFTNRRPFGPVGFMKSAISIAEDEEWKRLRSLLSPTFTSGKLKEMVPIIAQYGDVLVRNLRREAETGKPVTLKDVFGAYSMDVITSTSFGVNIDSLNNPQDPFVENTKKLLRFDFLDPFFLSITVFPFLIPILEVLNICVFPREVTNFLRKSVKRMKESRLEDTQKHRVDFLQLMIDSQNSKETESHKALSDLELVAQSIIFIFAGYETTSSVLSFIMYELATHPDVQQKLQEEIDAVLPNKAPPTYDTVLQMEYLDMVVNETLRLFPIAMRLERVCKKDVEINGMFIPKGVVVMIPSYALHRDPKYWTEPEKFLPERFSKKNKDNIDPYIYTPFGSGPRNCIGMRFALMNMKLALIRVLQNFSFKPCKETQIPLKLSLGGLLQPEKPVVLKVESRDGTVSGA

Plasma [6] = experiment: Plasma concentration in Sprague-Dawley rat at 150 umol/kg, sc qd for 4 consecutive days measured on day 4 post dose by HPLC-MS analysis; assay type: ADME, organism-based; details: in vivo
PXR (NR1I2) = target: T5, PXR (NR1I2) (Homo sapiens, UniProt O75469); experiment: Agonist activity at recombinant human PXR at 3.16 uM by co-factor recruitment assay relative to control; assay type: ADME; details: read-out: Activity
T5 sequence (O75469 whole entry): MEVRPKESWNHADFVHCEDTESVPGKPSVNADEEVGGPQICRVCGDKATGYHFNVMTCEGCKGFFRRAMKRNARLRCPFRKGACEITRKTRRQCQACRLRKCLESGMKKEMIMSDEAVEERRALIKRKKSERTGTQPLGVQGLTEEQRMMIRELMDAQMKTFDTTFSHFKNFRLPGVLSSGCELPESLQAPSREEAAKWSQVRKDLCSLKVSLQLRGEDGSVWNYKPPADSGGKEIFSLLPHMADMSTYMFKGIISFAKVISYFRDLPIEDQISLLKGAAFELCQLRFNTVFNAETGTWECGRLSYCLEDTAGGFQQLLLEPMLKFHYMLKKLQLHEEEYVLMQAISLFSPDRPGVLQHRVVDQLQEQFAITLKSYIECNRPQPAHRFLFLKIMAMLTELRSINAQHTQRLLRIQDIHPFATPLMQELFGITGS

CYP2D6 = CYP2D6 (Homo sapiens, UniProt P10635); experiment: Inhibition of recombinant human CYP2D6 expressed in baculovirus infected insect cell microsomes at 1 uM relative to control; assay type: ADME
Sequence of CYP2D6 (P10635 whole entry): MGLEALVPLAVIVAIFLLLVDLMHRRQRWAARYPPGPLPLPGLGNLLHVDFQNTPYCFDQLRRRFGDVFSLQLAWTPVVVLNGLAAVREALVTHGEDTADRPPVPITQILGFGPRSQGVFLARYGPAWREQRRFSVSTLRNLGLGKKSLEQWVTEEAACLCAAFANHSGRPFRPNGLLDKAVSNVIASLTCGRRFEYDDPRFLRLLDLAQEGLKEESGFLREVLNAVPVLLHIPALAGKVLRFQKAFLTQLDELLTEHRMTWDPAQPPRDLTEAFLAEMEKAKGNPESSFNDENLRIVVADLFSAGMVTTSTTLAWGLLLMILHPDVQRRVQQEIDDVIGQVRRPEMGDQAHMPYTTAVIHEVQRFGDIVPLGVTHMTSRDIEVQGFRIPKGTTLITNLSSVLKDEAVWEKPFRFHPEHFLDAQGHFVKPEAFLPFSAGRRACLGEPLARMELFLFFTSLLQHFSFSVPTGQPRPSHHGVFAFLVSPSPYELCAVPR

Salmonella typhimurium [7] = experiment: Mutagenicity in Salmonella typhimurium TA7001/7002/7003/7004/7005/7006 up to 100 uM by Ames 2 assay; assay type: toxicity; details: salmonella enterica subsp. enterica serovar typhimurium
Plasma [8] = experiment: Plasma concentration in Sprague-Dawley rat at 150 umol/kg, sc qd for 4 consecutive days measured on day 8 post dose by HPLC-MS analysis; assay type: ADME, organism-based; details: in vivo
CYP2C9 = CYP2C9 (Homo sapiens, UniProt P11712); experiment: Inhibition of recombinant human CYP2C9 expressed in baculovirus infected insect cell microsomes at 1 uM relative to control; assay type: ADME
Sequence of CYP2C9 (P11712 whole entry): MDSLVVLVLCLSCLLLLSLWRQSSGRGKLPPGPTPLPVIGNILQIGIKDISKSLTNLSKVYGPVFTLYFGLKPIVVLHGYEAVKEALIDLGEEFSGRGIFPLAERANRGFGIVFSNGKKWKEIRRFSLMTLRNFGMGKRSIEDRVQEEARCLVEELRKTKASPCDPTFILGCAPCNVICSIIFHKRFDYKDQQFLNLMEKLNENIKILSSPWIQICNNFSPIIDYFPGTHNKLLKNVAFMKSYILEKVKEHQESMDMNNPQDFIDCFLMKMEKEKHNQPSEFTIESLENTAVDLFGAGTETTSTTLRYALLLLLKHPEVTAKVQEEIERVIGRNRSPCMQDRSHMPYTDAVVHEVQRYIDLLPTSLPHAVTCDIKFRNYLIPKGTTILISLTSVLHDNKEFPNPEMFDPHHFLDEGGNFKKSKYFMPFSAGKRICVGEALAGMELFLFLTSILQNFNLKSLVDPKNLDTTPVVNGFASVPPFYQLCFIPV

Salmonella typhimurium [9] = experiment: Mutagenicity in Salmonella typhimurium TA98 up to 100 uM in presence of rat liver S9 fraction by Ames 2 assay; assay type: toxicity; details: salmonella enterica subsp. enterica serovar typhimurium
Salmonella typhimurium [10] = experiment: Mutagenicity in Salmonella typhimurium TA7001/7002/7003/7004/7005/7006 up to 100 uM in presence of rat liver S9 fraction by Ames 2 assay; assay type: toxicity; details: salmonella enterica subsp. enterica serovar typhimurium
Plasma [11] = experiment: Plasma concentration in Sprague-Dawley rat at 150 umol/kg, sc qd for 4 consecutive days measured on day 2 post dose by HPLC-MS analysis; assay type: ADME, organism-based; details: in vivo
CYP2B6 = target: T6, CYP2B6 (Homo sapiens, UniProt P20813); experiment: Inhibition of recombinant human CYP2B6 expressed in baculovirus infected insect cell microsomes at 1 uM relative to control; assay type: ADME
T6 sequence (P20813 whole entry): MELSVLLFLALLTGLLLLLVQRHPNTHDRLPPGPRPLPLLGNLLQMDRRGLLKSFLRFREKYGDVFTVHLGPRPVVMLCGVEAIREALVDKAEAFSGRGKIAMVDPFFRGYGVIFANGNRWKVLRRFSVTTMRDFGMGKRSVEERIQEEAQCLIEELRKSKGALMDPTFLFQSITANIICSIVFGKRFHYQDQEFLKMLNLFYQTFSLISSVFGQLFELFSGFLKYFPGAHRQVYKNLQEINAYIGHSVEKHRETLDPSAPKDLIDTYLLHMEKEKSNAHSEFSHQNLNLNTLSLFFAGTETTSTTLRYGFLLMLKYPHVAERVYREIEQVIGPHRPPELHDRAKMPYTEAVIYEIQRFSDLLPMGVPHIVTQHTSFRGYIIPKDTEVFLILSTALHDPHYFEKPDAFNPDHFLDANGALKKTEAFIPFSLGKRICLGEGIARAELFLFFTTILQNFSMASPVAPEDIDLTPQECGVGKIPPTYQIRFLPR

Salmonella typhimurium [12] = experiment: Mutagenicity in Salmonella typhimurium TA98 up to 100 uM by Ames 2 assay; assay type: toxicity; details: salmonella enterica subsp. enterica serovar typhimurium
HEK293 = experiment: Cytotoxicity against HEK293 cells assessed as reduction in cell viability up to 5.6 uM after 66 hrs by MTT assay; assay type: cell-based; details: human, hek293, 66 h

Row | Structure (SMILES) | IC50 [1] [nM] | IC50 [2] [nM] | activity at 10 µM [3] [%] | activity at 3 µM [4] [%] | also measured
1 | O=C(c1ccc(-c2cccnc2)s1)c1c(F)ccc(O)c1F | 47 | 27 |  |  | 
2 | O=C(c1ccc(-c2ccncc2)s1)c1c(F)ccc(O)c1F | 39 | 150 |  |  | 
3 | COc1c(C)cc(-c2ccc(C(=O)c3c(F)ccc(O)c3F)s2)cc1C |  |  | 69 | 51 | 
4 | O=C(c1cccc(O)c1)c1ccc(-c2ccc(F)cc2F)s1 | 140 | 105 to 110 |  |  | 
5 | O=C(c1ccc(-c2ccc(O)c(Cl)c2)s1)c1c(F)ccc(O)c1F |  |  | 55 | 73 | 
6 | COc1c(Cl)cc(-c2ccc(C(=O)c3cccc(O)c3)s2)cc1Cl | 250 | 6 | 0 | 8 | 
7 | O=C(c1cccc(O)c1)c1ccc(-c2cc(Cl)c(O)c(Cl)c2)s1 | 540 | 73 |  |  | 
8 | COc1c(Cl)cc(-c2ccc(C(=O)c3c(F)ccc(O)c3F)s2)cc1Cl |  | 0.5 | 8 | 27 | Selectivity Index [5]: 11160; inhibition at 1 µM (CYP1A2): 11%; inhibition at 1 µM (CYP2C19): 27%; inhibition at 1 µM (CYP3A4): 36%; concentration (Plasma [6]): 42 nM; activity at 3.16 µM (PXR (NR1I2)): < 5%; inhibition at 1 µM (CYP2D6): 0%; Activity (Salmonella typhimurium [7]): Non-Toxic; concentration (Plasma [8]): 72 nM; inhibition at 1 µM (CYP2C9): 0%; Activity (Salmonella typhimurium [9]): Non-Toxic; Activity (Salmonella typhimurium [10]): Non-Toxic; concentration (Plasma [11]): 24 nM; inhibition at 1 µM (CYP2B6): 4%; Activity (Salmonella typhimurium [12]): Non-Toxic; Activity (HEK293): Non-Toxic
9 | Cc1cc(-c2ccc(C(=O)c3c(F)ccc(O)c3F)s2)cc(C)c1O |  |  | 22 | 17 | 
10 | O=C(c1ccc(-c2ccccc2)s1)c1c(F)ccc(O)c1F | 35 | 11 |  |  | 
11 | COc1ccc(-c2ccc(C(=O)c3c(F)ccc(O)c3F)s2)cc1 | 38 | 18 |  |  | 
12 | COc1c(C)cc(-c2ccc(C(=O)c3c(F)ccc(O)c3F)s2)cc1Cl |  | 0.3 |  |  | 
13 | O=C(c1ccc(-c2cc(Cl)c(O)c(Cn3ccnn3)c2)s1)c1c(F)ccc(O)c1F | 26 | 18 |  |  | 
14 | NS(=O)(=O)c1cccc(-c2ccc(C(=O)c3c(F)ccc(O)c3F)s2)c1 | 86 | 55 |  |  | 
15 | O=C(c1ccc(-c2ccc(F)cc2F)s1)c1cccc(O)c1F | 55 | 47 |  |  | 
16 | N#Cc1cc(-c2ccc(C(=O)c3c(F)ccc(O)c3F)s2)ccc1O |  |  | 6 | 44 | 
17 | O=C(c1ccc(-c2ccc(O)cc2)s1)c1c(F)ccc(O)c1F | 71 | 3 |  |  | 
18 | NS(=O)(=O)c1ccc(-c2ccc(C(=O)c3c(F)ccc(O)c3F)s2)cc1 | 85 | 150 |  |  | 
19 | COc1ccc(-c2ccc(C(=O)c3c(F)ccc(O)c3F)s2)cc1S(=O)(=O)N1CCOCC1 | 180 | 130 | 4 | 0 | 
20 | O=C(c1ccc(-c2cc(Cl)c(O)c(Cl)c2)s1)c1c(F)ccc(O)c1F |  |  | 11 | 37 | 
